Source: patent US8691261B2, “Drug, drug guidance system, magnetic detection system, and drug design method” (IHI Corporation, priority 2005, dated 2014)

What was measured:
rat L6 cells = test: number of rat L6 cells in flask with bar magnet after sprinkling Fe complex powder; assay type: cell-based; conditions: 48 hours, bar magnet in contact with flask
Text: A group of samples shown on the left side is obtained by diluting a pyridine concentrate solution with water (double distilled water (DDW)), while a group of samples shown on the right side is obtained by diluting a pyridine iron complex saturated solution with pyridine. By changing the concentration of the iron complex in pyridine to, for example, ½ or 1/16 of the aforementioned concentration of the solution containing only pyridine, the MRI can detect changes in the concentration through images. Subsequently, when rat L6 cells were in 30% confluent state, Fe complex powder was sprinkled over a culture medium as much as required to enable visual observation of the Fe complex powder when being drawn to magnets. 48 hours later, the condition of the culture medium was photographed.
Referring to FIG. 22, “proximal to magnet” means within the projected area of the bottom of the rectangular flask in contact with the end face of the magnet, while “distal from magnet” means an area of the rectangular flask opposite the end face of the magnet. […] As a result, the magnetic drug and the system including the magnetic field generating means according to the present invention can concentrate the drug at the target affected part or tissues of an individual body.

[1] = magnetic guidance to mouse right kidney, SNR measured by MRI; assay type: in vivo; conditions: intravenous, 5 mg/ml (15 mM), right kidney approximately 0.3 T, 10 minutes
Text: Next, another example of a guidance system according to the present invention will be explained. In this guidance system, a pair of magnets 230 and 232 located opposite to each other in a direction of gravitational force is supported by a stand 234 and a clamp 235, and a metal plate 236 is placed between the magnets as shown in FIG. 23. A locally uniform and strong magnet field can be generated by placing the metal plate, particularly an iron plate, between the pair of magnets.
The drug can be concentrated on the target tissues by placing the tissues of the individual body in this area of the magnetic field. The aforementioned metal complex (drug concentration: 5 mg/ml (15 mM)) was administered intravenously to a mouse (weight: approximately 30 g), the abdominal cavity of the mouse was opened, and the mouse was then placed on the iron plate so that its right kidney was positioned between the pair of magnets.
The magnets used were neodymium permanent magnets made by Shin-Etsu Chemical Co., Ltd. (product number: N50; residual magnetic flux density: 1.39-1.44 T). […] The magnetic field was applied to the mouse's right kidney; and 10 minutes later, the SNR of the right kidney as well as the left kidney […] (control) to which no magnetic field was applied was measured in T1 mode and T2 mode, using the MRI system.

[2] = compared to cisplatin; cited from earlier work

| Molecule | number of cells at area proximal to the magnet compared to area distal from the magnet (rat L6 cells) | amount of drug held in kidney tissues (SNR, T1 and T2 mode MRI) [1] | anticancer effect [2] |
| --- | --- | --- | --- |
| Fe-salen | extremely low | larger amount of the drug could be held in the tissues of the right kidney (RT) | – |
| CC(C[NH-])CC[NH-].O=C([O-])C1(C(=O)[O-])CCC1.[Pt+4] [NK121] | – | – | comparable to that of cisplatin |
